From US12384756B2, “Piperidinedione derivatives” (INNOCURE THERAPEUTICS, INC., priority 2021, dated 2025)
Where two headings read alike, the source gives them in different places.

How the values were obtained:
Type in all cases: cell-based
[1] = test system: Human breast cancer cell line [MDA-MB-231]; experiment: Anti-proliferative activity (WST-8) of BRD4 targeted PROTAC in MDA-MB-231; details: Homo sapiens, MDA-MB-231, 72 hours
Protocol: (§1) Human breast cancer cell line [MDA-MB-231] was cultured in RPMI medium with 10% petal bovine serum, penicillin [100 U/ml] and streptomycin [[…]]. The synthesized compound was prepared as a stock solution of 10 mM or 50 mM dissolved in DMSO [dimethyl sulfoxide], and it was sequentially diluted to treat the cell line.
In order to observe inhibition of cell growth, cells were aliquoted into concentrations of 5,000 cells/well at 96 well plates, and then were treated with samples prepared at various concentrations for 72 hours. The cell survival was calculated by steps of adding in each well […] of water soluble tetrazolium salt (WST-8) which produces formazon in response to dehydrogenase present in the electron transport chain in mitochondria, incubating for 2 hours, measuring the absorbance at 450 nm, and calculating by GraphicPad Prism 8.0 software.

BRD4 [2] = target: T1, BRD4 (Homo sapiens, UniProt O60885); experiment: BRD4 protein degradation by western blot in MDA-MB-231 cells; parameters: BRD4 expressed in cells; endogenous in cells; host or cells: MDA-MB-231; details: MDA-MB-231, 24 hours; for DC50: 50% inhibition of protein expression, read-out: DC50 of BRD4-targeted PROTAC
Protocol: as §1
To evaluate the PROTAC's degradation ability to BRD4 expressed in cells, the cells were aliquoted into a 6 well plate at a concentration of 5×10^5 cells/ml, and then the sample was treated for 24 hours. In order to conduct western blotting assay to confirm protein expression, the cell treated with the compound was treated for 30 minutes with 70 μL of RIPA buffer wherein protease inhibitor is added. Then, cell lysate was collected on ice using a scraper and centrifuged at 4° C. 15,000 rpm for 30 minutes to obtain a supernatant containing protein. Then, SDS-PAGE is conducted for 10 μg of protein per each sample, and the protein is transferred to a membrane. The protein is reacted with antibodies of anti-BRD4, anti-tubulin and anti-GAPDH at 4° C. for 16 hours, and then, reacted with secondary antibodies at room temperature for 1 hour. The protein expression is confirmed using SUPERSIGNAL™ WEST PICO PLUS chemiluminescence substrate and image analyzer. The protein expression was normalized based on the expression value of β-tublin or GAPDH. The amount of protein expression in each sample was measured in % based on the sample treated with 0.1% DMSO vehicle which was set to 100%. The amount of protein expression was quantified using the IMAGE J PROGRAM. The change in the amount of protein expression due to the treatment of compound (DC50: the concentration of compounds where the 50% inhibition of protein expression is achieved) was calculated using […] PRISM 8.0 software.

BRD4 [3] = target: T1, BRD4; experiment: BRD4 degradation by western blot in A549 cells; parameters: BRD4 expressed in cells; endogenous in cells
Protocol: The human lung cancer cell line A549 was purchased from the Korean Cell Line Bank.
5×10^5 cells were seeded for each well of the 6 well plate (SPL company), and the cells were cultured with a total of 1.5 mL of the culture medium volume. The cultured cells were treated with various concentrations (0 nM, 0.1 nM, 0.3 nM, 1 nM, 3 nM, 10 nM, 30 nM, 100 nM, 300 nM, 1000 nM, 3000 nM, 10000 nM) of PROTAC compound according to the present invention and cultured for 24 hours.
For cell lysis, a lysis buffer was added and cell lysate was obtained using a cell scraper.
Specifically, cells were treated with 70 μl of 1×RIPA buffer containing protease inhibitors. Cell lysate was collected on ice using a scraper and incubated for 30 minutes. Then, cells were centrifuged at 4° C. 15,000 rpm for 30 minutes to obtain a cell lysate.
The standard curve was obtained using BCA assay, and the protein mass in the lysate was quantified by substituting the standard curve. The mixture was incubated at 37° C. for 30 minutes using a sample solution of 1 μl and a BCA solution of 200 μl. The absorbance was measured at 562 nm. Samples were prepared by adding a sample buffer to reach 10 μg per well.
SDS-PAGE was conducted by setting a running time of 70 minutes at 110 V in a 4-15% Mini-PROTEAN TGX stain-free gel (15 wells). A transfer was conducted using a trans-blot turbo transfer system (Bio-rad). Blocking was conducted using a blocking-grade blocker (Bio-rad) for 1 hour. Then, it was washed with 1×TBS containing 0.1% tween 20, and reacted with anti-BRD4 antibody (1:3000) or anti-beta-tubulin antibody (1:3000) in bovine serum albumin as a primary antibody at 4° C. for 16 hours. After washing three times for 10 minutes with 1×TBS containing 0.1% tween 20, it was reacted with anti-rabbit antibody (1:10000) in the blotting-grade blocker as a secondary antibody at room temperature for 1 hour. Then, after washing three times for 10 minutes with 1×TBS containing 0.1% tween 20, detection was conducted with SUPERSIGNAL™ WEST PICO PLUS chemiluminescence substrate.
For result analysis, final blot data were obtained using an image analyzer (GE).
DC50^1): DC50 value is calculated by comparing band intensity with that of a sample which is not treated with a PROTAC compound as a controlled group.
DC50^2): DC50 value is calculated by comparing the band intensity relative to that of beta-tubulin with that of the controlled group.

[4] = WST-8, read-out: IC50 of BRD4-targeted PROTAC (cell proliferation)
[5] = read-out: concentration at which cancer cell proliferation is effectively inhibited

Row | Structure (SMILES) | IC50 [1, 4] [µM] | DC50 (BRD4 [2]) [µM] | IC50 [1, 5] [µM] | BRD4 degradation (in words) (BRD4 [2]) | DC50 (BRD4 [3]; A549, 24 hours; band intensity compared with untreated control; read-out: DC50 1)) [µM] | DC50 (BRD4 [3]; A549, 24 hours; band intensity relative to beta-tubulin compared with control; read-out: DC50 2)) [µM]
1 | Cc1sc2c(c1C)C(c1ccc(Cl)cc1)=N[C@@H](CC(=O)NCCNc1cccc3cnn(C4CCC(=O)NC4=O)c(=O)c13)c1nnc(C)n1-2 (stereo partly drawn) [Example 43, 2-((S)-4-(4-chlorophenyl)-2,3,9-trimethyl-6H-thieno[3,2-f][1,2,4]triazolo[4,3-a][1,4]diazepin-6-yl)-N-(2-((3-(2,6-dioxopiperidin-3-yl)-4-oxo-3,4-dihydrophthalazin-5-yl)amino)ethyl)acetamide] | > 1 | 0.185 |  |  |  | 
2 | Cc1sc2c(c1C)C(c1ccc(Cl)cc1)=N[C@@H](CC(=O)Nc1ccc(OCCOCCOCCOCCNc3ccc4cnn(C5CCC(=O)NC5=O)c(=O)c4c3)cc1)c1nnc(C)n1-2 (stereo partly drawn) [Ex. 29, 2-((S)-4-(4-chlorophenyl)-2,3,9-trimethyl-6H-thieno[3,2-f][1,2,4]triazolo[4,3-a][1,4]diazepin-6-yl)-N-(4-(2-(2-(2-(2-((3-(2,6-dioxopiperidin-3-yl)-4-oxo-3,4-dihydrophthalazin-6-yl)amino)ethoxy)ethoxy)ethoxy)ethoxy)phenyl)acetamide] | 0.0986 | 0.0037 | < 0.25 | effectively degraded |  | 
3 | Cc1sc2c(c1C)C(c1ccc(Cl)cc1)=N[C@@H](CC(=O)NCCOc1cccc3cnn(C4CCC(=O)NC4=O)c(=O)c13)c1nnc(C)n1-2 (stereo partly drawn) [Example 45, 2-((S)-4-(4-chlorophenyl)-2,3,9-trimethyl-6H-thieno[3,2-f][1,2,4]triazolo[4,3-a][1,4]diazepin-6-yl)-N-(2-((3-(2,6-dioxopiperidin-3-yl)-4-oxo-3,4-dihydrophthalazin-5-yl)oxy)ethyl)acetamide] | > 1 | 0.108 |  |  |  | 
4 | Cc1sc2c(c1C)C(c1ccc(Cl)cc1)=N[C@@H](CC(=O)NCc1cn(CCOCCOCCOCCNc3cccc4c(=O)n(C5CCC(=O)NC5=O)ncc34)nn1)c1nnc(C)n1-2 (stereo partly drawn) [Example 34, 2-[(9S)-7-(4-chlorophenyl)-4,5,13-trimethyl-3-thia-1,8,11,12-tetraazatricyclo[8.3.0.0^2,6]trideca-2(6),4,7,10,12-pentaen-9-yl]-N-{[1-(2-{2-[2-(2-{[2-(2,6-dioxopiperidin-3-yl)-1-oxo-1,2-dihydrophthalazin-5-yl]amino}ethoxy)ethoxy]ethoxy}ethyl)-1H-1,2,3-triazol-4-yl]methyl}acetamide] | > 1 | 0.0386 |  |  |  | 
5 | Cc1sc2c(c1C)C(c1ccc(Cl)cc1)=N[C@@H](CC(=O)NCOCCOCCOCCNc1cccc3cnn(C4CCC(=O)NC4=O)c(=O)c13)c1nnc(C)n1-2 (stereo partly drawn) [Ex. 21, 2-((S)-4-(4-chlorophenyl)-2,3,9-trimethyl-6H-thieno[3,2-f][1,2,4]triazolo[4,3-a][1,4]diazepin-6-yl)-N-((2-(2-(2-((3-(2,6-dioxopiperidin-3-yl)-4-oxo-3,4-dihydrophthalazin-5-yl)amino)ethoxy)ethoxy)ethoxy)methyl)acetamide] |  |  |  |  | 1.6 | 0.242
6 | Cc1sc2c(c1C)C(c1ccc(Cl)cc1)=N[C@@H](CC(=O)NCCNc1cccc3c(=O)n(C4CCC(=O)NC4=O)ncc13)c1nnc(C)n1-2 (stereo partly drawn) [Example 44, 2-((S)-4-(4-chlorophenyl)-2,3,9-trimethyl-6H-thieno[3,2-f][1,2,4]triazolo[4,3-a][1,4]diazepin-6-yl)-N-(2-((2-(2,6-dioxopiperidin-3-yl)-1-oxo-1,2-dihydrophthalazin-5-yl)amino)ethyl)acetamide] | > 1 | 0.93 |  |  |  | 

The next lines start with the values.

Row | IC50 [1, 4] [µM] | DC50 (BRD4 [2]) [µM] | IC50 [1, 5] [µM] | BRD4 degradation (in words) (BRD4 [2]) | DC50 (BRD4 [3]; A549, 24 hours; band intensity compared with untreated control; read-out: DC50 1)) [µM] | DC50 (BRD4 [3]; A549, 24 hours; band intensity relative to beta-tubulin compared with control; read-out: DC50 2)) [µM] | Structure (SMILES)
7 | > 1 | 0.663 |  |  |  |  | Cc1sc2c(c1C)C(c1ccc(Cl)cc1)=N[C@@H](CC(=O)NCCOCCOCCOCCn1cc(CNc3cccc4cnn(C5CCC(=O)NC5=O)c(=O)c34)nn1)c1nnc(C)n1-2 (stereo partly drawn) [Example 36, 2-[(9S)-7-(4-chlorophenyl)-4,5,13-trimethyl-3-thia-1,8,11,12-tetraazatricyclo[8.3.0.0^2,6]trideca-2(6),4,7,10,12-pentaen-9-yl]-N-{2-[2-(2-{2-[4-({[3-(2,6-dioxopiperidin-3-yl)-4-oxo-3,4-dihydrophthalazin-5-yl]amino}methyl)-1H-1,2,3-triazol-1-yl]ethoxy}ethoxy)ethoxy]ethyl}acetamide]
8 | 0.00215 | 0.0059 | < 0.25 | effectively degraded |  |  | Cc1sc2c(c1C)C(c1ccc(Cl)cc1)=N[C@@H](CC(=O)NCCN1CCN(c3ccc4c(=O)n(C5CCC(=O)NC5=O)ncc4c3)CC1)c1nnc(C)n1-2 (stereo partly drawn) [Example 48, 2-((S)-4-(4-chlorophenyl)-2,3,9-trimethyl-6H-thieno[3,2-f][1,2,4]triazolo[4,3-a][1,4]diazepin-6-yl)-N-(2-(4-(2-(2,6-dioxopiperidin-3-yl)-1-oxo-1,2-dihydrophthalazin-6-yl)piperazin-1-yl)ethyl)acetamide]
9 | 0.137 | 0.0044 | < 0.25 | effectively degraded |  |  | Cc1sc2c(c1C)C(c1ccc(Cl)cc1)=N[C@@H](CC(=O)Nc1cccc(OCCOCCOCCNc3ccc4c(=O)n(C5CCC(=O)NC5=O)ncc4c3)c1)c1nnc(C)n1-2 (stereo partly drawn) [Example 41, 2-((S)-4-(4-chlorophenyl)-2,3,9-trimethyl-6H-thieno[3,2-f][1,2,4]triazolo[4,3-a][1,4]diazepin-6-yl)-N-(3-(2-(2-(2-((2-(2,6-dioxopiperidin-3-yl)-1-oxo-1,2-dihydrophthaazin-6-yl)amino)ethoxy)ethoxy)ethoxy)phenyl)acetamide]
10 | 0.0203 | 0.0107 | < 0.25 | effectively degraded |  |  | Cc1sc2c(c1C)C(c1ccc(Cl)cc1)=N[C@@H](CC(=O)Nc1cccc(OCCOCCOCCNc3ccc4cnn(C5CCC(=O)NC5=O)c(=O)c4c3)c1)c1nnc(C)n1-2 (stereo partly drawn) [Example 42, 2-((S)-4-(4-chlorophenyl)-2,3,9-trimethyl-6H-thieno[3,2-f][1,2,4]triazolo[4,3-a][1,4]diazepin-6-yl)-N-(3-(2-(2-(2-((3-(2,6-dioxopiperidin-3-yl)-4-oxo-3,4-dihydrophthalazin-6-yl)amino)ethoxy)ethoxy)ethoxy)phenyl)acetamide]
